{"source": "patent US8178486B2", "about": "“Method for promoting hair growth” (Animal Technology Institute Taiwan, priority 2005, dated 2012)", "tested_on": "hair follicles", "experiment": "Hair growth in 4-month old female mice, topical application to shaved dorsal skin", "assay_type": "in vivo", "experimental": "The marked areas of the mice were applied by spreading topically on the exposed skin areas 60 μl of aqueous solutions of bovine lactoferrin (200 mg/ml), 60 μl of control vehicle (water), and 60 μl of bovine lactoferricin, obtained as set forth in Example 3, (200 mg/ml) twice daily. Observation for hair growth in the marked areas is made daily after the first treatment. […] The hair growth-promoting effect of lactoferrin or lactoferricin was consistently observed in all tested mice. Although lactoferricin was prepared by the method described in Example 3 above, the present invention should not be limited to use only lactoferricin prepared in such manner. Lactoferricin prepared by other methods would still fall within the scope of the present invention.", "data": [{"substance": "lactoferricin", "values": [{"measurement": "amount of hair growth compared with area treated with lactoferrin of the same amount", "setting": "200 mg/ml topically twice daily, 10 days", "value": "greater amount of hair growth"}, {"measurement": "hair growth observed in the treated skin area", "setting": "60 μl of 200 mg/ml topically twice daily, after 10 days, not seen with control vehicle", "value": "prominent hair growth"}]}]}
